{"source": "patent US12629388B2", "about": "“Intradialytic use of sodium nitrite” (Hope Medical Enterprises, Inc., priority 2017, dated 2026)", "key": {"[1]": {"conditions": "for Nitrite Concentration After Addition of Sodium Nitrite (Time = 60 Min): average of two samples", "description": "(§1) Concentration of nitrite in samples was assayed by ion chromatography. The ion chromatograph was equipped with a conductivity detector, self-regenerating suppression system, eluent generator, and a Dionex IonPacAS19 analytical column. The nitrite concentration in the samples was measured and calculated against an external sodium nitrite standard. USP Sodium Nitrite Reference Standard (Item Number 1614454) was the testing standard (United States Pharmacopeia. Rockville, Maryland).\nDialysate bicarbonate concentrate solution was prepared by adding 1 package of Centrisol® MB-330 Series Sodium Bicarbonate Concentrate powder (650 g) to 7.7 liters of purified water.\nThe hemodialysis machine mixed the bicarbonate concentrate solution and acid concentrate solution with the dilution ratio of 1 part of an acid concentrate solution, 1.72 parts of a bicarbonate concentrate solution, and 42.38 parts of purified water. The machine was primed in bypass mode (dialysate and ultrafiltration rates set at zero) using normal saline. After priming, the hemodialysis machine was run in “Therapy Mode” with the following settings: blood flow rate 300 ml/minute, dialysate flow rate 600 mL/minute, ultrafiltration rate 0 mL/minute.\nAn aqueous solution of sodium nitrite was prepared by dissolving 3 mg of sodium nitrite in 1 liter of purified water. […] This valve was placed in the dialysate tubing approximately eight inches upstream of the dialyzer (pre-filter). Two sampling ports were placed four inches upstream (pre-dialyzer sampling port) and ten inches downstream (post-dialyzer sampling port) from the dialyzer to collect samples of dialysate for […] assay by ion chromatography.\nThe infusion pump infused the sodium nitrite solution into the tubing through the valve at a rate of 250 mL/hour (4.16 mL/minute).\nNormal saline flowed into the dialyzer at a rate of 300 mL/minute from the Arterial line and exited the dialyzer through the Venous line. Samples of saline were collected from the venous side of the dialyzer."}, "[2]": {"conditions": "pre-mixed 1 L dialysate, pH 7.32 at 24.4° C. after addition; expected 2.997 mg/L", "description": "as §1"}, "[3]": {"conditions": "mixed dialysate exiting Fresenius 2008K hemodialysis machine; expected 1.46 mg/L", "description": "as §1\nThe machine was primed in bypass mode (dialysate and ultrafiltration rates set at zero) using normal saline."}, "[4]": {"conditions": "during the first hour of hemodialysis; cited from earlier work"}, "[5]": {"conditions": "dialysate bicarbonate concentrate; for Nitrite Concentration by Assay: room temperature, expected 38.1 mg/L", "description": "as §1\nExample 2 was performed to determine the stability of sodium nitrite in dialysate bicarbonate concentrate solution. At room temperature, 300 mg sodium nitrite was added to 7,700 mL of dialysate bicarbonate concentrate solution. The nitrite concentration of the dialysate bicarbonate concentrate solution was analyzed by ion chromatography 1) before addition of sodium nitrite; 2) 5 minutes after the addition of sodium nitrite; and 3) 2 hours after the addition of sodium nitrite."}, "[6]": {"description": "Example 1 was performed to determine the stability of sodium nitrite in aqueous solution when acid is added. A 100 mL sample of sodium nitrite solution with a concentration of 30 mg/mL was tested for the presence of nitrogen oxide gases (NO, NO2, N2O3, and N2O4) using an Orion Model 95-46 Nitrogen Oxide (NOx) electrode and a pH meter. With constant stirring, the mV reading with the NOx electrode and pH reading with the pH electrode were recorded after successive additions of 100 μL of either 0.02 N or 1 N hydrochloric acid."}}, "note": "Read-outs that look alike come from different tables or passages of the source.", "data": [{"smiles": "O=NO", "note": "[Sodium Nitrite, sodium nitrite]", "values": [{"measurement": "Nitrite Concentration After Addition of Sodium Nitrite (Time = 60 Min)", "setting": "[1]; dialysate after dialyzer", "result": 235, "unit": "nM"}, {"measurement": "Nitrite Concentration After Addition of Sodium Nitrite (Time = 60 Min)", "setting": "[1]; dialysate before dialyzer, 3 mg/L solution infused at 250 mL/hour, dialysate flow 600 mL/minute", "result": 451, "unit": "nM"}, {"measurement": "stability when mixed with dialysate within dialysate tubing (in words)", "setting": "[1]; infused between the hemodialysis machine and the dialyzer membrane", "result": "stable"}, {"measurement": "Nitrite Concentration After Addition of Sodium Nitrite (Time = 60 Min)", "setting": "[1]; saline solution after dialyzer (venous side)", "result": 183, "unit": "nM"}, {"measurement": "Nitrite Concentration by Assay", "setting": "[2]", "result": 1.149, "unit": "mg/L"}, {"measurement": "Nitrite Concentration by Assay", "setting": "[3]", "result": "None"}, {"measurement": "decline of the concentration of nitrite in the plasma", "setting": "[4]", "result": "over 60%"}, {"measurement": "Nitrate Concentration", "setting": "[5]; 5 minutes after addition", "result": "None"}, {"measurement": "Nitrite Concentration by Assay", "setting": "[5]; 5 minutes after addition", "result": 38.0, "unit": "mg/L"}, {"measurement": "Nitrate Concentration", "setting": "[5]; 2 hours after addition", "result": "None"}, {"measurement": "Nitrite Concentration by Assay", "setting": "[5]; 2 hours after addition", "result": 38.5, "unit": "mg/L"}, {"measurement": "pH at which nitrogen oxides was detected", "setting": "[6]; 30 mg/mL solution, successive addition of hydrochloric acid, detection limit 1 ppm NOx", "result": 6.7}, {"measurement": "initial pH of the sodium nitrite solution", "setting": "[6]; 100 mL solution, 30 mg/mL, before acid addition", "result": 8.73}, {"measurement": "response of the Nitrogen Oxide electrode", "setting": "[6]; at pH 4.9", "result": 99.5, "unit": "mV"}, {"measurement": "response of the Nitrogen Oxide electrode", "setting": "[6]; at pH 6.7", "result": 8.0, "unit": "mV"}, {"measurement": "stability on exposure to acid (in words)", "setting": "[6]; extent of decomposition generally inversely proportional to the pH", "result": "decomposes when exposed to acid"}]}]}
